Earlier results on two compounds are cited in patent US8399465B2, “Compounds with two fused bicyclic heteroaryl moieties as modulators of leukotriene A4 hydrolase” (Janssen Pharmaceutica NV, priority 2009, dated 2013).

The test system of series [1] is ionophore-induced LTB4 production. As to conditions: oral administration; cited from earlier work.
Series [2] shares this test system. As to conditions: oral administration; cited from earlier work. This is another data set of the same source.
A further series has as its system colitis symptoms. The note with it: eight weeks of treatment; cited from earlier work.
In series [3] the test system is airway hyperresponsiveness. As to conditions: multiple antigen challenges, primate model; cited from earlier work.

As to `CN(CCCOc1ccc(Cc2ccccc2)cc1)CCC(=O)O.Cl` [SC57461], in series [1], the “ionophore-induced LTB4 production in mouse blood ex vivo” value is on record as “caused inhibition”. Besides, the “ionophore-induced LTB4 production in rat peritoneum in vivo” value in series [2] was “caused inhibition”. In addition, in the series with colitis symptoms, the colitis symptoms result is “significantly improved”.

Consider `O=C(O)C1(c2ccc3c(c2)OC[C@H](Cc2ccc(-c4ccccc4)cc2)[C@H]3O)CCCC1` [CP-105,696], for which the airway hyperresponsiveness entry in series [3] is listed as “reduced”.
